From ChEMBL document CHEMBL4265870, “Synthesis and biological evaluation of a new series of benzimidazole derivatives as antimicrobial, antiquorum-sensing and antitumor agents” (Eur J Med Chem, 2017) come the findings set out here.

Converted amounts (≈) assume the structure as drawn. The source made the active and inactive calls. No cut-off for these calls is given here. Where only a bound is given, the exact number is not on record here.

In series [1] the test system is Staphylococcus aureus. Description: Antimicrobial activity against Staphylococcus aureus by two fold serial dilution method. Type of series: functional.
The subject of series [2] is Ehrlich. The experiment in a line: Antitumor activity against mouse EAC cells implanted in Swiss mouse assessed as viable cell count per 100 ul at 0.5 mg/mouse dosed for 9 days starting 1 day after tumor cell implantation (reference value: 83.2 x 10^6/100 ul). In kind it is functional.
Series [3] has as its system HepG2. The experiment in a line: Cytotoxicity in human HepG2 cells assessed as reduction in cell viability by MTT assay. In kind it is functional, cell-based.
For series [4], the system named is WI-38. Description: Cytotoxicity in human WI38 cells assessed as reduction in cell viability by MTT assay. In kind it is cell-based.
Series [5] concerns Escherichia coli. The experiment in a line: Antimicrobial activity against Escherichia coli by two fold serial dilution method. In kind it is functional.
Series [6] concerns Ehrlich. Description: Antitumor activity against mouse EAC cells implanted in Swiss mouse assessed as tumor volume at 0.5 mg/mouse dosed for 9 days starting 1 day after tumor cell implantation (reference value: 9.85 ml). Type of series: functional.
The test system of series [7] is Mus musculus. Description: Toxicity in mouse EAC cells implanted Swiss mouse assessed as RBC count at 0.5 mg/mouse dosed for 9 days starting 1 day after tumor cell implantation (reference value: 3.69 10^6/mm3)). In kind it is organism-based. The settings on record: in vivo.
The test system of series [8] is HCT-116. Description: Cytotoxicity in human HCT116 cells assessed as reduction in cell viability by MTT assay. In kind it is functional, cell-based.
Series [9] deals with Calf thymus DNA. Description: Binding affinity to calf thymus DNA by TLC plate based assay. Type of series: nucleic-acid assay. The following applies: Bos taurus.
Series [10] has as its system Ehrlich. Description: Antitumor activity against mouse EAC cells implanted in Swiss mouse assessed as increase in life span at 0.5 mg/mouse dosed for 9 days starting 1 day after tumor cell implantation relative to untreated control. In kind it is functional.
The subject of series [11] is MCF7. The experiment in a line: Cytotoxicity in human MCF7 cells assessed as reduction in cell viability by MTT assay. Type of series: functional, cell-based.
Series [12] concerns Aspergillus fumigatus. The experiment in a line: Antimicrobial activity against Aspergillus fumigatus 293 by two fold serial dilution method. The settings on record: Af293. In kind it is functional.
The test system of series [13] is Bacillus cereus. The experiment in a line: Antimicrobial activity against Bacillus cereus by two fold serial dilution method. In kind it is functional.
Series [14] concerns Mus musculus. Description: Toxicity in mouse EAC cells implanted Swiss mouse assessed as hemoglobin level at 0.5 mg/mouse dosed for 9 days starting 1 day after tumor cell implantation (reference value: 8.15 g/dl). Type of series: organism-based. The settings on record: in vivo.
Series [15] has as its system Mus musculus. Description: Toxicity in mouse EAC cells implanted Swiss mouse assessed as WBC count at 0.5 mg/mouse dosed for 9 days starting 1 day after tumor cell implantation (reference value: 23.96 10^3/mm3)). Type of series: organism-based. The settings on record: in vivo.
The subject of series [16] is Chromobacterium violaceum. Description: Antiquorum-sensing activity against Chromobacterium violaceum ATCC 12472 assessed as reduction in violacein production at 5000 ug/ml a=. Type of series: functional.
The subject of series [17] is Ehrlich. Description: Antitumor activity against mouse EAC cells implanted in Swiss mouse assessed as mouse survival time at 0.5 mg/mouse dosed for 9 days starting 1 day after tumor cell implantation (reference value: 14.5 days). In kind it is functional.

For the compound `CC1=NN(Cc2nc3ccccc3[nH]2)C(=O)C1`, the minimum inhibitory concentration (MIC) in series [1] is 156 µg/mL (≈ 0.685 mM); in series [5], above 2500 µg/mL; in series [12] it was 312 µg/mL (≈ 1.37 mM); in [13] it was 1250 µg/mL (≈ 5.48 mM). The Activity in series [2] came to 45.38 ×10⁶ No_unit; in series [6] it was 4.16 mL; in [7], 4.55 ×10⁶ /mm3; in series [14], 11.47 g/dL; in series [15], 11.26 ×10³ /mm3. Besides, the half-maximal inhibitory concentration (IC50) in series [3] was 54 µM; in [4] it was 246 µM; in series [8], 42 µM; in series [11] it was 62 µM. Besides, the outcome in [9] was Active. Also, the increase in life span (ILS) in [10] was 110.34%. In addition, the “diameter of the inhibition zone (DIZ)” value in series [16] is 4 mm. Further, the MST in series [17] was determined as 31.5 days.

As for `CCOC(=O)c1c(NCc2nc3ccccc3[nH]2)sc2c1CCCCC2`, the minimal inhibitory concentration (MIC) in series [1], in series [5], in series [12] and in [13] was above 2500 µg/mL throughout. The Activity in [2] turned out to be 29.65 ×10⁶ No_unit; in series [6] it was 3.23 mL; in series [7], 4.89 ×10⁶ /mm3; in series [14], 12.13 g/dL; in series [15], 9.11 ×10³ /mm3. Moreover, the half-inhibitory concentration (IC50) in series [3] came out at 43 µM; in series [4], 58 µM; in series [8], 31 µM; in series [11] it was 40 µM. In addition, the result in [9] was inactive. In series [10], the ILS stood at 168.9%. The “diameter of the inhibition zone (DIZ)” value in series [16] is on record as 3 mm. For the same compound, in [17], the MST is 39 days.

`O=c1[nH]cc(F)c(=O)[nH]1` [FLUOROURACIL]: the Activity stood at 20.17 ×10⁶ No_unit in series [2]; 1.6 mL in series [6]; 5.21 ×10⁶ /mm3 in [7]; 12.96 g/dL in [14]; 8.86 ×10³ /mm3 in series [15]. Further, the IC50 in series [3] is 61 µM; in series [4], 51 µM; in series [8], 41 µM; in series [11] it was 41.5 µM. Further, in series [10], the ILS is reported as 237.93%. Moreover, the MST in series [17] was found to be 49 days.

Regarding `O=[N+]([O-])c1ccc2[nH]c(CNc3c([N+](=O)[O-])ccc4ncccc34)nc2c1`, the minimal inhibitory concentration (MIC) in [1] worked out at 2500 µg/mL (≈ 6.86 mM); in series [5], 1250 µg/mL (≈ 3.43 mM); in series [12], 2500 µg/mL (≈ 6.86 mM); in series [13], 312 µg/mL (≈ 0.858 mM). Also, the figures for the half-inhibitory concentration (IC50) in [3], in series [8] and in [11] were 265 µM, 256 µM and 274 µM, respectively. For the same compound, in series [9], the outcome was Active. Moreover, the “diameter of the inhibition zone (DIZ)” value in series [16] is 4 mm.

On to `O=[N+]([O-])c1ccc2ncccc2c1NCc1nc2ccccc2[nH]1`, for which the MIC in series [1] was found to be 1250 µg/mL (≈ 3.91 mM); in series [5], 625 µg/mL (≈ 1.96 mM); in [12], 1250 µg/mL (≈ 3.91 mM); in series [13], 156 µg/mL (≈ 0.489 mM). Moreover, the half-maximal inhibitory concentration (IC50) in series [3] was 259 µM; in [8], 204 µM; in series [11] it was 237 µM. The outcome in series [9] was Active. In addition, the “diameter of the inhibition zone (DIZ)” value in series [16] is given as 8 mm.

On to `O=[N+]([O-])c1ccc2[nH]c(CN3CCN(c4ccc(F)cc4)CC3)nc2c1`, for which the MIC is 1250 µg/mL (≈ 3.52 mM) in series [1], 2500 µg/mL (≈ 7.03 mM) in series [5], 2500 µg/mL (≈ 7.03 mM) in [12] and 2500 µg/mL (≈ 7.03 mM) in series [13]. Moreover, the Activity in [2] turned out to be 23.54 ×10⁶ No_unit; in [6], 2.32 mL; in series [7] it was 5.36 ×10⁶ /mm3; in [14] it was 13.15 g/dL; in series [15], 7.34 ×10³ /mm3. Further, the IC50 in series [3] was 22 µM; in series [4] it was 298 µM; in [8], 14 µM; in series [11] it was 15 µM. Also, the result in series [9] was Active. In addition, in series [10], the ILS was 206.98%. Besides, the “diameter of the inhibition zone (DIZ)” value in series [16] is below 2 mm. In addition, the MST in [17] was found to be 44.5 days.

On to `NS(=O)(=O)c1nnc(NCc2nc3ccccc3[nH]2)s1`, for which the MIC is 625 µg/mL (≈ 2.01 mM) in [1], 625 µg/mL (≈ 2.01 mM) in series [5], above 2500 µg/mL in series [12] and above 2500 µg/mL in series [13]. Moreover, the 50% inhibitory concentration (IC50) in series [3] turned out to be 162 µM; in [8], 156 µM; in series [11], 228 µM. The outcome in series [9] was Active. The “diameter of the inhibition zone (DIZ)” value in series [16] is below 2 mm.

Take `Fc1ccc2nc(NCc3nc4ccccc4[nH]3)sc2c1`: the minimal inhibitory concentration (MIC) is 156 µg/mL (≈ 0.524 mM) in series [1], above 2500 µg/mL in series [5], 1250 µg/mL (≈ 4.19 mM) in [12] and above 2500 µg/mL in series [13]. The figures for the IC50 in series [3], in series [8] and in [11] were 233 µM, 238 µM and 242 µM, respectively. Also, in series [9], the outcome was Active. In series [16], the “diameter of the inhibition zone (DIZ)” value is reported as 11 mm.

With `O=C1c2ccccc2C(=O)N1NCc1nc2ccccc2[nH]1`, the MIC is above 2500 µg/mL in [1], above 2500 µg/mL in [5], 1250 µg/mL (≈ 4.28 mM) in [12] and above 2500 µg/mL in series [13]. In addition, the Activity in series [2] is 21.95 ×10⁶ No_unit; in [6], 2.15 mL; in series [7], 5.52 ×10⁶ /mm3; in [14] it was 13.21 g/dL; in series [15], 7.11 ×10³ /mm3. In addition, the 50% inhibitory concentration (IC50) stood at 32 µM in series [3], 322 µM in series [4], 31 µM in [8] and 37 µM in series [11]. Further, the result in [9] was Active. Moreover, the increase in life span (ILS) in [10] is 222.07%. For the same compound, in series [16], the “diameter of the inhibition zone (DIZ)” value was found to be 4 mm. In series [17], the MST came out at 46.7 days.
